Measurements published in the kinase profiling compilation of Christmann-Franck et al. (2016).

How the values were obtained:
Experiment in all cases: radiometric filter-binding kinase assay
AURKA (human) = AURKA (human) (UniProt O14965)
AURKB (human) = AURKB (human) (UniProt Q96GD4)
BRSK1 (human) = BRSK1 (human) (UniProt Q8TDC3)
BTK (human) = BTK (human) (UniProt Q06187)
CDK2 CCNA2 (human) = CDK2 CCNA2 (human) (UniProt P20248+P24941)
CHEK1 (human) = CHEK1 (human) (UniProt O14757)
CSNK2A1 (human) = CSNK2A1 (human) (UniProt P68400)
DYRK2 (human) = DYRK2 (human) (UniProt Q92630)
EEF2K (human) = EEF2K (human) (UniProt O00418)
EPHA2 (human) = EPHA2 (human) (UniProt P29317)
ERBB4 (human) = ERBB4 (human) (UniProt Q15303)
Sequence of ERBB4 (human) (Q15303 whole entry, looked up): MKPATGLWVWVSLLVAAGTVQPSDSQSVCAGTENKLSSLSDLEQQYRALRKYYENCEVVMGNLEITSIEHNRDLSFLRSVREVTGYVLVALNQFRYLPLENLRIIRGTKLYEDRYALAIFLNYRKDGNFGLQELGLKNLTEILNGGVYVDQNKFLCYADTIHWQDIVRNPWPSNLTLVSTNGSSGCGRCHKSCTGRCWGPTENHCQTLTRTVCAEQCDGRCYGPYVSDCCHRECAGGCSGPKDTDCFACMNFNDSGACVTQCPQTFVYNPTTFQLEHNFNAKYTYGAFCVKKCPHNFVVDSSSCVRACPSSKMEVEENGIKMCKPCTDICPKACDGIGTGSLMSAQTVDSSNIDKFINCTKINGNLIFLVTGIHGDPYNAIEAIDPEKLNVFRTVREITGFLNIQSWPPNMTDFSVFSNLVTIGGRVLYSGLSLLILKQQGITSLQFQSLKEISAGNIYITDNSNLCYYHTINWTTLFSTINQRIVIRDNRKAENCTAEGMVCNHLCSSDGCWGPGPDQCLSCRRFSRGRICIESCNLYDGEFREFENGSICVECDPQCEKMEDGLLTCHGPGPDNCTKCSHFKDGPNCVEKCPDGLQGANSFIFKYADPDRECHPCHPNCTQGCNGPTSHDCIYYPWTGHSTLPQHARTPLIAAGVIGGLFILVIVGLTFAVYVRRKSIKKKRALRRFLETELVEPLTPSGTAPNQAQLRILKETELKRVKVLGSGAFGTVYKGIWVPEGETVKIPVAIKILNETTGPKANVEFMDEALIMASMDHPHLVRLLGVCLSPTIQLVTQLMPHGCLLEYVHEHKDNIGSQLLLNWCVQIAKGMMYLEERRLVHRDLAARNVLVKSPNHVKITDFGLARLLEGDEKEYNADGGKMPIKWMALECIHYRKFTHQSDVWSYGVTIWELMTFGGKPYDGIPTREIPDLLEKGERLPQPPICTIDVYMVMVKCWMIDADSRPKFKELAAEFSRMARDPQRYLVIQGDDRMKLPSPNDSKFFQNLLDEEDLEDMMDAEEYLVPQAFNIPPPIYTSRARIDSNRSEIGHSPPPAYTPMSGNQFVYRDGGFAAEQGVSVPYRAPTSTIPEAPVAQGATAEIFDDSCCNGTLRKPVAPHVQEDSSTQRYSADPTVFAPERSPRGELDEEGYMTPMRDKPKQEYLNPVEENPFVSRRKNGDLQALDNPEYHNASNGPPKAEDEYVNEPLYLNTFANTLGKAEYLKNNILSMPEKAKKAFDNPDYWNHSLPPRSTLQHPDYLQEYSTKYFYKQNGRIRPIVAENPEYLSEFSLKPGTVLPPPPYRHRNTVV

FGFR1 (human) = FGFR1 (human) (UniProt P11362)
FLT1 (human) = FLT1 (human) (UniProt P17948); details: compound 10.0 µM
GCK (human) = GCK (human) (UniProt Q12851)
INSRR (human) = INSRR (human) (UniProt P14616)
MAP2K2 (human) = MAP2K2 (human) (UniProt P36507)
MAP2K6 (human) = MAP2K6 (human) (UniProt P52564)
MAPK10 (human) = MAPK10 (human) (UniProt P53779)
MAPK12 (human) = MAPK12 (human) (UniProt P53778)
MAPK15 (human) = MAPK15 (human) (UniProt Q8TD08)
MAPKAPK3 (human) = MAPKAPK3 (human) (UniProt Q16644)
MAPKAPK5 (human) = MAPKAPK5 (human) (UniProt Q8IW41)
MELK (human) = MELK (human) (UniProt Q14680)
MINK1 (human) = MINK1 (human) (UniProt Q8N4C8)
MST4 (human) = MST4 (human) (UniProt Q9P289)
[1] = system: PAK2 (human), Q13177 [T402E]
PHKG1 (human) = PHKG1 (human) (UniProt Q16816)
Sequence of PHKG1 (human) (Q16816 whole entry, looked up): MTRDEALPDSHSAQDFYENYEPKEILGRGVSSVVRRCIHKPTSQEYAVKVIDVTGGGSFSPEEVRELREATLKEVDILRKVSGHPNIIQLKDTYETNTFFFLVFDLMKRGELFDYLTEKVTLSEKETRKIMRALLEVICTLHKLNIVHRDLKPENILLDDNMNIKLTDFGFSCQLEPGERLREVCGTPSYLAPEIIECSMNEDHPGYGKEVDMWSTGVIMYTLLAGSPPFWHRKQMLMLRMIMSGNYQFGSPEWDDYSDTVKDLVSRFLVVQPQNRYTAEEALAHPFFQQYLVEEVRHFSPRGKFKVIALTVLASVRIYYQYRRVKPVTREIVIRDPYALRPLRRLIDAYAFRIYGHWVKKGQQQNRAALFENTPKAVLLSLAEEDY

PIM2 (human) = PIM2 (human) (UniProt Q9P1W9)
Sequence of PIM2 (human) (Q9P1W9 whole entry, looked up): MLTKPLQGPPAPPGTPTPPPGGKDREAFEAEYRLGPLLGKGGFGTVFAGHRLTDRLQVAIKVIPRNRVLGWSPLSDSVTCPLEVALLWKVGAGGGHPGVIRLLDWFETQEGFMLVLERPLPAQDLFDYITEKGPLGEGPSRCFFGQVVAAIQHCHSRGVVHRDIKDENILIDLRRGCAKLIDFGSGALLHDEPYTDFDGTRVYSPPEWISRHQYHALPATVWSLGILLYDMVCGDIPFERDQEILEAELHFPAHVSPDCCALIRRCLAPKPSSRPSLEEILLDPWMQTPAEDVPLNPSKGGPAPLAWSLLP

PIM3 (human) = PIM3 (human) (UniProt Q86V86)
PRKACA (human) = PRKACA (human) (UniProt P17612)
PRKCA (human) = PRKCA (human) (UniProt P17252)
RIPK2 (human) = RIPK2 (human) (UniProt O43353)
RPS6KA3 KD1 KD2 (human) = RPS6KA3 KD1 KD2 (human) (UniProt P51812)
Sequence of RPS6KA3 KD1 KD2 (human) (P51812 whole entry, looked up): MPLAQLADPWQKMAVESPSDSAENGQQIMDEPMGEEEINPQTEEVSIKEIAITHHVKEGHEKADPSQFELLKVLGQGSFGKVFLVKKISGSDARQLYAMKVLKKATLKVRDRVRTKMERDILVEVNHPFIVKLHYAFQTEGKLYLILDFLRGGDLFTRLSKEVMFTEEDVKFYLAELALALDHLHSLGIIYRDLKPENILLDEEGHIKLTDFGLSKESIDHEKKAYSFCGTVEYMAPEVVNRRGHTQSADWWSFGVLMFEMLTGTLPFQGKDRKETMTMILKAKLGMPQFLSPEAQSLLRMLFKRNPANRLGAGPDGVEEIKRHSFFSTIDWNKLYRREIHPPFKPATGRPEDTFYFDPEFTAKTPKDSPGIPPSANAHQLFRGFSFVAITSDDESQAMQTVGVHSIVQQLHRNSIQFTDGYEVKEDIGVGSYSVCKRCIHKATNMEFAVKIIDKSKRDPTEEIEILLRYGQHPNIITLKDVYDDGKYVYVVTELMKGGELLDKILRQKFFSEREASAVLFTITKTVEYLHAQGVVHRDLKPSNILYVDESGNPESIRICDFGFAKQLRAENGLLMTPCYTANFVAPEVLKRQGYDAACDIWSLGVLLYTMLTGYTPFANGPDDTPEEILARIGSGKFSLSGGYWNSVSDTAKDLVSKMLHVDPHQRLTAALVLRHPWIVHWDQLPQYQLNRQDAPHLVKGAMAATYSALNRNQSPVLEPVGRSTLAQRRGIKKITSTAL

[2] = system: SGK1 (human), O00141 [S422D]
SRPK1 (human) = SRPK1 (human) (UniProt Q96SB4)
Sequence of SRPK1 (human) (Q96SB4 whole entry, looked up): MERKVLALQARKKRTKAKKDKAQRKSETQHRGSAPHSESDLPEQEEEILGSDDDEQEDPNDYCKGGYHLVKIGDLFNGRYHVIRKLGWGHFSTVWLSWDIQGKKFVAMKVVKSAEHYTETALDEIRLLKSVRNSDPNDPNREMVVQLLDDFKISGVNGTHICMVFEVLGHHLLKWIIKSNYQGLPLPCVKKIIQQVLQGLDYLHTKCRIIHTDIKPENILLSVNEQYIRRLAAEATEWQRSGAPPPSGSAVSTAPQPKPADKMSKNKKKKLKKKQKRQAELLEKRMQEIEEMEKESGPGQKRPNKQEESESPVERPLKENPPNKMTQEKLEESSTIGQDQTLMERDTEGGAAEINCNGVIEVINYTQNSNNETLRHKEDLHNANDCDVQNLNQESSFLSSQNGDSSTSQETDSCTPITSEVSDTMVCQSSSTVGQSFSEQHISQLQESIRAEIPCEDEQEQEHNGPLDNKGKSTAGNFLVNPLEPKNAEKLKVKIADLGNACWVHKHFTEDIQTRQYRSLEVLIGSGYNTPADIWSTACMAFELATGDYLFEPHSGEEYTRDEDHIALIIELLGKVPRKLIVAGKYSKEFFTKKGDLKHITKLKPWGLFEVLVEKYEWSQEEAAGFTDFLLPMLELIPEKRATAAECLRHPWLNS

TAOK1 (human) = TAOK1 (human) (UniProt Q7L7X3)
Sequence of TAOK1 (human) (Q7L7X3 whole entry, looked up): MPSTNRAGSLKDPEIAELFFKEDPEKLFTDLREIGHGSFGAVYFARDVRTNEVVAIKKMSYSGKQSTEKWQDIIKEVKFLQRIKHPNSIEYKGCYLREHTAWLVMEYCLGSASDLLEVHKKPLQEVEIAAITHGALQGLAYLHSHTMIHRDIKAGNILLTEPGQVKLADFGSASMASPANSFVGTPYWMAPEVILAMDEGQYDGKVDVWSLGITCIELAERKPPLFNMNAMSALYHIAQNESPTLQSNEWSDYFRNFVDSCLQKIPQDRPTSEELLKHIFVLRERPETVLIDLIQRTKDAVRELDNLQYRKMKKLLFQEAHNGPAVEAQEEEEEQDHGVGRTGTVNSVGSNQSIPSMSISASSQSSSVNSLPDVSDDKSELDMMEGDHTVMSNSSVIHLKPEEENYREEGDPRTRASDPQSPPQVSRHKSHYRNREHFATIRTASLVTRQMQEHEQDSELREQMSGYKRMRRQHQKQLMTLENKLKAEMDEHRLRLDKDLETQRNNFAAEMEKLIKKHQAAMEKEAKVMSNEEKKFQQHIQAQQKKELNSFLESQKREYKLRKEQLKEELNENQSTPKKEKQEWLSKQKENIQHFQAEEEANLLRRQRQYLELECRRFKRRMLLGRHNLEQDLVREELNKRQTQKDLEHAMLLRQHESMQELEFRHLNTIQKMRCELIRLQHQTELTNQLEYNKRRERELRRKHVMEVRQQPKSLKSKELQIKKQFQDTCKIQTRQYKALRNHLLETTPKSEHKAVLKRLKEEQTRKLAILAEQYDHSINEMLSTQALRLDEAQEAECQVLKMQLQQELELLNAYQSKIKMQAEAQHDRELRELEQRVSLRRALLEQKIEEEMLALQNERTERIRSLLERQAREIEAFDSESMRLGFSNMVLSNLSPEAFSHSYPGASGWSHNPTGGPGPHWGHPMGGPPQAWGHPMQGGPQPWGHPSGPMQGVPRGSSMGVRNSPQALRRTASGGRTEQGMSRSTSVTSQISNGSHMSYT

Sequence of BTK (human) (Q06187 whole entry, looked up): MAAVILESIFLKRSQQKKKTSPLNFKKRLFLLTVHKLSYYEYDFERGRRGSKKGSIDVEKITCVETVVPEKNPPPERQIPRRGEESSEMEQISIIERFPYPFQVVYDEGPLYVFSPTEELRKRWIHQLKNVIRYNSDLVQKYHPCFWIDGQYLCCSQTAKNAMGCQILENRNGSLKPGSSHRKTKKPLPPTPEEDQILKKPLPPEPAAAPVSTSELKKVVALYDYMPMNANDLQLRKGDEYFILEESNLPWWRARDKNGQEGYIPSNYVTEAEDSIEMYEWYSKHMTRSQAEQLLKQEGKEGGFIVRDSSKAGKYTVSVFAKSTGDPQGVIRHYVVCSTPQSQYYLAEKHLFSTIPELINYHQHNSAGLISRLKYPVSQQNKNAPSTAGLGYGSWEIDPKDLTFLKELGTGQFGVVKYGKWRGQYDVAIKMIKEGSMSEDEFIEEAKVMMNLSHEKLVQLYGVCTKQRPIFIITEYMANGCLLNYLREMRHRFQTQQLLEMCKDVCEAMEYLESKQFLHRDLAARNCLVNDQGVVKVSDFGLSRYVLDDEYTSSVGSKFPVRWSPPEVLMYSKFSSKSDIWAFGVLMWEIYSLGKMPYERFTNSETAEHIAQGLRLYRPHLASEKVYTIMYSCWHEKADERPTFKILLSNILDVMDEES

- residual activity (AURKA (human); compound 1.0 µM): 102%
- residual activity (AURKA (human); compound 10.0 µM): 84%
- residual activity (AURKB (human); compound 0.1 µM): 109%
- residual activity (AURKB (human); compound 1.0 µM): 99%
- residual activity (AURKB (human); compound 10.0 µM): 64%
- residual activity (BRSK1 (human); compound 0.1 µM): 86%
- residual activity (BRSK1 (human); compound 1.0 µM): 55%
- residual activity (BRSK1 (human); compound 10.0 µM): 29%
- residual activity (BTK (human); compound 0.1 µM): 120%
- residual activity (BTK (human); compound 1.0 µM): 118%
- residual activity (BTK (human); compound 10.0 µM): 107%
- residual activity (CDK2 CCNA2 (human); compound 0.1 µM): 111%
- residual activity (CDK2 CCNA2 (human); compound 1.0 µM): 93%
- residual activity (CDK2 CCNA2 (human); compound 10.0 µM): 57%
- residual activity (CHEK1 (human); compound 1.0 µM): 109%
- residual activity (CHEK1 (human); compound 10.0 µM): 112%
- residual activity (CSNK2A1 (human); compound 0.1 µM): 100%
- residual activity (CSNK2A1 (human); compound 1.0 µM): 97%
- residual activity (CSNK2A1 (human); compound 10.0 µM): 93%
- residual activity (DYRK2 (human); compound 0.1 µM): 101%
- residual activity (DYRK2 (human); compound 1.0 µM): 105%
- residual activity (DYRK2 (human); compound 10.0 µM): 52%
- residual activity (EEF2K (human); compound 0.1 µM): 106%
- residual activity (EEF2K (human); compound 1.0 µM): 97%
- residual activity (EEF2K (human); compound 10.0 µM): 85%
- residual activity (EPHA2 (human); compound 0.1 µM): 90%
- residual activity (EPHA2 (human); compound 1.0 µM): 95%
- residual activity (EPHA2 (human); compound 10.0 µM): 76%
- residual activity (ERBB4 (human); compound 0.1 µM): 92%
- residual activity (ERBB4 (human); compound 1.0 µM): 105%
- residual activity (ERBB4 (human); compound 10.0 µM): 99%
- residual activity (FGFR1 (human); compound 0.1 µM): 95%
- residual activity (FGFR1 (human); compound 1.0 µM): 91%
- residual activity (FGFR1 (human); compound 10.0 µM): 68%
- residual activity (FLT1 (human)): 65%
- residual activity (GCK (human); compound 0.1 µM): 109%
- residual activity (GCK (human); compound 1.0 µM): 89%
- residual activity (GCK (human); compound 10.0 µM): 19%
- residual activity (INSRR (human); compound 0.1 µM): 99%
- residual activity (INSRR (human); compound 1.0 µM): 79%
- residual activity (INSRR (human); compound 10.0 µM): 53%
- residual activity (MAP2K2 (human); compound 0.1 µM): 113%
- residual activity (MAP2K2 (human); compound 1.0 µM): 108%
- residual activity (MAP2K2 (human); compound 10.0 µM): 79%
- residual activity (MAP2K6 (human); compound 0.1 µM): 95%
- residual activity (MAP2K6 (human); compound 10.0 µM): 91%
- residual activity (MAPK10 (human); compound 0.1 µM): 120%
- residual activity (MAPK10 (human); compound 1.0 µM): 104%
- residual activity (MAPK10 (human); compound 10.0 µM): 102%
- residual activity (MAPK12 (human); compound 0.1 µM): 108%
- residual activity (MAPK12 (human); compound 1.0 µM): 115%
- residual activity (MAPK12 (human); compound 10.0 µM): 97%
- residual activity (MAPKAPK3 (human); compound 0.1 µM): 114%
- residual activity (MAPKAPK3 (human); compound 1.0 µM): 62%
- residual activity (MAPKAPK3 (human); compound 10.0 µM): 30%
- residual activity (MAPKAPK5 (human); compound 1.0 µM): 67%
- residual activity (MAPKAPK5 (human); compound 10.0 µM): 24%
- residual activity (MELK (human); compound 0.1 µM): 123%
- residual activity (MELK (human); compound 10.0 µM): 77%
- residual activity (MINK1 (human); compound 1.0 µM): 97%
- residual activity (MINK1 (human); compound 10.0 µM): 40%
- residual activity (MST4 (human); compound 1.0 µM): 101%
- residual activity (MST4 (human); compound 10.0 µM): 91%
- residual activity ([1]; compound 0.1 µM): 102%
- residual activity ([1]; compound 1.0 µM): 103%
- residual activity ([1]; compound 10.0 µM): 93%
- residual activity (PHKG1 (human); compound 0.1 µM): 110%
- residual activity (PHKG1 (human); compound 1.0 µM): 91%
- residual activity (PHKG1 (human); compound 10.0 µM): 86%
- residual activity (PIM2 (human); compound 0.1 µM): 103%
- residual activity (PIM2 (human); compound 1.0 µM): 103%
- residual activity (PIM2 (human); compound 10.0 µM): 66%
- residual activity (PIM3 (human); compound 0.1 µM): 55%
- residual activity (PIM3 (human); compound 1.0 µM): 18%
- residual activity (PIM3 (human); compound 10.0 µM): 3%
- residual activity (PRKACA (human); compound 0.1 µM): 109%
- residual activity (PRKACA (human); compound 1.0 µM): 119%
- residual activity (PRKACA (human); compound 10.0 µM): 108%
- residual activity (PRKCA (human); compound 0.1 µM): 101%
- residual activity (PRKCA (human); compound 10.0 µM): 90%
- residual activity (RIPK2 (human); compound 0.1 µM): 93%
- residual activity (RIPK2 (human); compound 10.0 µM): 39%
- residual activity (RPS6KA3 KD1 KD2 (human); compound 0.1 µM): 104%
- residual activity (RPS6KA3 KD1 KD2 (human); compound 1.0 µM): 79%
- residual activity (RPS6KA3 KD1 KD2 (human); compound 10.0 µM): 50%
- residual activity ([2]; compound 0.1 µM): 116%
- residual activity ([2]; compound 1.0 µM): 112%
- residual activity ([2]; compound 10.0 µM): 112%
- residual activity (SRPK1 (human); compound 0.1 µM): 89%
- residual activity (SRPK1 (human); compound 1.0 µM): 63%
- residual activity (SRPK1 (human); compound 10.0 µM): 19%
- residual activity (TAOK1 (human); compound 0.1 µM): 109%
- residual activity (TAOK1 (human); compound 1.0 µM): 98%
- residual activity (TAOK1 (human); compound 10.0 µM): 70%
Compound: Cc1ccc(-c2ccc3c(ccc4sc5c(c43)NC[C@@H](C)NC5=O)n2)cn1
- residual activity (MAPK15 (human); compound 0.1 µM): 96%
- residual activity (MAPK15 (human); compound 1.0 µM): 79%
- residual activity (MAPK15 (human); compound 10.0 µM): 38%
